In US11896589B2, “Diazinyl amino acridines and medical uses thereof” (MyCural Therapeutics AB, priority 2018, dated 2024):

What was measured:
[1] = biological target: T1, endogenous MYC:MAX interaction in MDA-MB231 cells (Homo sapiens, UniProt P01106); experiment: Assay 3A isPLA assay, MYC:MAX; assay type: cell-based
T1 construct: endogenous in cells; host or cells: MDA-MB231
Source text: FIG. 4: A) Endogenous MYC:MAX (upper panel) and FRA1:JUN (lower panel) interactions as visualized as fluorescent red dots by isPLA. Nuclei were counterstained with DAPI (blue). […] As negative control, primary antibody pairs but only one oligo-conjugated secondary antibody was used. B) Quantification of MYC:MAX and C) FRA1:JUN isPLA, representing an average number of nuclear dots per cell from three microscopic fields normalized to corresponding values for DMSO-treated cells. […] 1st-4th lanes from top; coimmunoprecipitated MAX, immunoprecipitated MYC, total levels of MAX and ACTIN, respectively, as determined by western blot analysis. E) MYC:MAX GLuc assay in cells. […] 24 hours later cells were treated with […] of Example 1, Example 2 and control compound for 16 hours and thereafter analyzed in a dual luciferase assay. The ratio of Gaussia/Firefly luciferase luminescence were calculated and normalized to DMSO-treated cells.
Assay 3A: The isPLA Assay
(§1) Identification of endogenous protein-protein interactions in fixed cells and has been described (Soderberg, O. et al., Nat Methods, 3, 995-1000 (2006)). […] Endogenous MYC:MAX or FRA-1:JUN protein interactions were visualized by fluorescence microscopy as fluorescent dots mainly localized in the cell nucleus. […]

[2] = biological target: T2, FRA1:JUN interaction in MDA-MB231 cells (Homo sapiens, UniProt P05412+P15407); experiment: Assay 3A isPLA assay, FRA1:JUN; assay type: cell-based; settings: 10 μM
T2 construct: endogenous in cells; host or cells: MDA-MB231
Protocol: FIG. 4: A) Endogenous MYC:MAX (upper panel) and FRA1:JUN (lower panel) interactions as visualized as fluorescent red dots by isPLA. Nuclei were counterstained with DAPI (blue). Cells were treated with 10 μM of indicated compounds for 16 hours and subjected to isPLA using pairs of MYC and MAX and of FRA1 and JUN antibodies, respectively. As negative control, primary antibody pairs but only one oligo-conjugated secondary antibody was used. B) Quantification of MYC:MAX and C) FRA1:JUN isPLA, representing an average number of nuclear dots per cell from three microscopic fields normalized to corresponding values for DMSO-treated cells. […] 1st-4th lanes from top; coimmunoprecipitated MAX, immunoprecipitated MYC, total levels of MAX and ACTIN, respectively, as determined by western blot analysis. E) MYC:MAX GLuc assay in cells. […] 24 hours later cells were treated with […] of Example 1, Example 2 and control compound for 16 hours and thereafter analyzed in a dual luciferase assay. The ratio of Gaussia/Firefly luciferase luminescence were calculated and normalized to DMSO-treated cells.
as §1

[3] = tested on: human MYCN-amplified SK-N-DZ neuroblastoma xenograft tumors; experiment: In vivo mouse xenograft tumor model; settings: 20 mg/kg i.p. daily, 1-2 weeks
Protocol: SK-N-DZ MYCN-amplified neuroblastoma xenograft tumors reaching a volume of 100-200 mm^3 were treated with Example 1 (20 mg/kg body weight) or vehicle injected i.p. daily for 1-2 weeks. A) Apoptosis was determined by TUNEL staining of tumor tissues from mice treated with Example 1 or vehicle, counterstained with DAPI. Quantification of TUNEL staining was normalized to whole tumor areas as determined by DAPI from three Example 1- and three vehicle-treated mice. Student's t-test of Example 1 vs. vehicle; p=0.0083. B) Cell proliferation determined by Ki67 of tumor tissues from mice treated with Example 1 or vehicle, respectively, and counterstained with DAPI. Quantification of Ki67 negative areas normalized to whole tumor areas by DAPI from three Example 1- and three vehicle-treated mice. Student's t-test of Example 1 vs. vehicle; p=0.0380. C) Microvascular density visualized by CD31 staining in the red. C) Quantification of CD31 staining normalized to whole tumor areas from three Example 1- and three vehicle-treated mice. Student's t-test of Example 1 vs. vehicle; p=0.014. D) Detection of MYCN:MAX protein interaction by isPLA performed on tumor tissue from mice treated with Example 1 or vehicle using antibodies against MYCN and MAX. Quantification of MYCN:MAX isPLA signals in tumor tissue from Example 1- and vehicle-treated mice, presented as average number of dots from four randomly chosen microscopic fields from Example 1 treated mice normalized to corresponding values from vehicle-treated mice (F=28.102, P=0.008). E) Apoptosis determined from TUNEL stained tumor section derived from a MDA-MB231 xenograft mouse treated with Example 2 for 2 weeks. Quantification of apoptotic cells per counted field.
To validate the efficacy of Example 1 in tumor tissue in vivo, we utilized a mouse xenograft tumor model based on human MYCN-amplified SK-N-DZ neuroblastoma cells. Tumor cells (5×10^6) were injected into the flank of athymic nude mice and allowed to form tumors after which Example 1 or vehicle were administered by daily intraperitoneal injection at a dose of 20 mg/kg body weight for 1-2 weeks.

T1 sequence (P01106 whole entry): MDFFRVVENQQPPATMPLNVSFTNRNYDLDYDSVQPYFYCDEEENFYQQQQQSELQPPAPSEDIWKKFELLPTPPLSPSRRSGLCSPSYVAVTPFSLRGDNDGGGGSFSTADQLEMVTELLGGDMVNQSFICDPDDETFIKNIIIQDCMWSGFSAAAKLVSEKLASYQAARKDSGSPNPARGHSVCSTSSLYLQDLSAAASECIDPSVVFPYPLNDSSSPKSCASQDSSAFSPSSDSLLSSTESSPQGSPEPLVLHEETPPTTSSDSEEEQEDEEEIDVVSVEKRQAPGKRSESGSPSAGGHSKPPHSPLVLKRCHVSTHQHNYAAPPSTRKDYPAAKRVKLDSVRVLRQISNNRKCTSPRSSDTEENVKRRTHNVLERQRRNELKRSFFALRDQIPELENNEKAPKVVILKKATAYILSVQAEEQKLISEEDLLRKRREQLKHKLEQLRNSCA
T2 sequence (P15407 whole entry): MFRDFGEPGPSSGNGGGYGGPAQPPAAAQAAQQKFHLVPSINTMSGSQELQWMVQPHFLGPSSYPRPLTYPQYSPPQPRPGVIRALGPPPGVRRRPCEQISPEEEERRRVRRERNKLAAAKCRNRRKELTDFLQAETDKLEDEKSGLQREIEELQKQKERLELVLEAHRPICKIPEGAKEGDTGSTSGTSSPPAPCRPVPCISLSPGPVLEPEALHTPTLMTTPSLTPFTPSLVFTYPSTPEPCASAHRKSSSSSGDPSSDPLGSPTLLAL
T2 sequence (P05412 whole entry): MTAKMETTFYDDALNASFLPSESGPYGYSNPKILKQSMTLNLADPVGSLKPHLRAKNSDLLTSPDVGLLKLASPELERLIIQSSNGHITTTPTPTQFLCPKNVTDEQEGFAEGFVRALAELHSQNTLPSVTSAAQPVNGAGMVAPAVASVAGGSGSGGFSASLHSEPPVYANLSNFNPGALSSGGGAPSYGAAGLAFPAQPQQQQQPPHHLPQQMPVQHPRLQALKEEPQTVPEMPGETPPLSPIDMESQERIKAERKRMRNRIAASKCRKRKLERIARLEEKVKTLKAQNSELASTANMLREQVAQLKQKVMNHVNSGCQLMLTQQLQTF

isPLA signals, % of DMSO control ([1]; 10 μM, 24 hours): 7%
inhibition at 10 µM ([1]; MDA-MB-231): 95%
effect on FRA1:JUN interaction (isPLA) [2]: not affecting
Structure (SMILES): CCOc1ccc2nc3cc(/N=N/c4ccc(N)nc4N)ccc3c(N)c2c1 [Example 1, 3-((9-amino-7-ethoxyacridin-3-yl)diazenyl)pyridine-2,6-diamine sulphate hydrate]
CD31 Decrease in microvascular density [3]: 44 % of vehicle
Ki67 Increase in Ki67-negative tumor area relative to vehicle [3]: 550%
MYCN:MAX interactions in tumors (isPLA) vs vehicle [3]: significant reduction
MYCN:MAX isPLA signal relative to vehicle [3]: 66 % of vehicle
TUNEL Increase in apoptotic tumor area relative to vehicle [3]: 1420%
apoptotic tumor areas (TUNEL) vs vehicle [3]: dramatic increase
microvascular density (CD31) vs vehicle [3]: significantly reduced
non-proliferative areas (Ki67) vs vehicle [3]: significant increase
